Results reported in patent US10138226B2, “Benzimidazol-2-amines as MIDH1 inhibitors” (Bayer Pharma Aktiengesellschaft, priority 2014, dated 2018).

Legend:
[1] = test system: LN229 R132H cells overexpressing mutated isocitrate dehydrogenase (mIDH); assay: Mutant IDH1 cellular assay (2-HG levels in medium); assay type: cell-based; conditions: 2-HG in medium of LN229 R132H cells, 24 hours incubation, fluorescence readout
Description: Mutant IDH1 Cellular Assay
Levels of (2R)-2-hydroxyglutarate (2HG) were measured in medium of a cell line with overexpression of mutated isocitrate dehydrogenase (mIDH) protein. mIDH catalyzes the NADPH-dependent reduction of alpha-ketoglutarate to 2-HG. Cells (LN229 R132H, Mohrenz et al., Apoptosis (2013) 18:1416-1425) were grown in DMEM containing 10% FCS. They were harvested by trypsin and seeded into 96-well plates. Cells were incubated overnight at 37° C. in 5% CO2. The next day test compounds were added to each cell well. The final concentration of DMSO was 0.1% and DMSO controls were included. The plates were then placed in an incubator for 24 hours.
2-HG was measured according to Balss et al. (Acta Neuropathol (2012) 124: 883-891). Briefly, HClO4 was added to each well and the plates were centrifuged. Aliquots are removed and incubated with hydroxyglutarate dehydrogenase (HGDH), diaphorase, NAD+, and resazurin. The conversion of resazurin to resorufin was detected by fluorescence spectroscopy at Ex 540 nm Em 600 nm. The increase in fluorescence is proportional to 2-HG production. IC50 values are determined by interpolation from plots of relative fluorescence vs inhibitor concentration.

[2] = target: IDH1 R132H enzyme (Homo sapiens (Human), UniProt O75874, R132H); assay: Mutant IDH1 R132H biochemical assay; conditions: NADPH consumption, luminescent readout, 250 μM α-KG, 1 μM NADPH, 32° C., 30 minutes, test range 0.002-10 μM; note: 1.5 nM enzyme
Description: mIDH1 catalyzes the NADPH-dependent reduction of alpha-ketoglutarate (α-KG) to (2R)-2-hydroxyglutarate (2-HG). NADPH consumption was measured by luminescent readout.
The biochemical reactions were performed at 32° C. in 384-well plates using a reaction volume of 41 μl and the following assay buffer conditions: 50 mM Tris pH 7.5, 100 mM NaCl, 20 mM MgCl2, 0.05% BSA, 0.01% Brij, 1 μM NADPH, and 250 μM α-KG. […] Test compounds were used in a concentration range between 0.002 and 10 μM. The final DMSO concentration was 2.4%.
The reaction was incubated for 30 minutes, then 40 μl of detection mix (0.75 μg/ml Luciferase, 0.02 U/ml Oxidoreductase, 4 μg/ml FMN, 2 μl/ml Decanal/Ethanol, 50 mM Tris pH 7.5, 0.5% Glycerin, 0.01% Tween-20, 0.05% BSA) was added. Luminescence was measured on a luminescent reader (10 seconds measuring time, 1 second integration period, 30% sensitivity). The decrease in luminescence is proportional to mIDH1 activity. IC50 values are determined by interpolation from plots of relative luminescence versus inhibitor concentration.

IDH1 R132H enzyme, sequence (O75874 whole entry R132H): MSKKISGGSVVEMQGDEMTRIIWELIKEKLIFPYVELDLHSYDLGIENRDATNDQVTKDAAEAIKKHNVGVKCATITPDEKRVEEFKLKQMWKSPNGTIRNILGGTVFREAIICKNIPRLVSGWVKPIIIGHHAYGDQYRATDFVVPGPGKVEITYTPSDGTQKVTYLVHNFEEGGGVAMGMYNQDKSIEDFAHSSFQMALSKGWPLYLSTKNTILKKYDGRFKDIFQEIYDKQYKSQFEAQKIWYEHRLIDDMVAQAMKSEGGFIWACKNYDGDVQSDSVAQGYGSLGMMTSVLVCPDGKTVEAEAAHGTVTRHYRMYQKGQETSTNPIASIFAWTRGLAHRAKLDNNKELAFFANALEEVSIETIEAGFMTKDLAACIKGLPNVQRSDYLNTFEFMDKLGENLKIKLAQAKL

Compound | IC50 ([1]; Homo sapiens, LN-229, 24 h) [nM] | IC50 [2] [nM] | IC50 [1] [nM]
COC(=O)c1ccc2nc(Nc3ccc(OC(F)(F)F)cc3)n([C@H]3C[C@@H](C)CC(C)(C)C3)c2c1 (racemic) [Example 2-1, (±) methyl 2-{[4-(trifluoromethoxy)phenyl]amino}-1-[(cis)-3,3,5-trimethylcyclohexyl]-1H-benzimidazole-6-carboxylate] | 3200 |  | 
COC(=O)c1ccc2nc(Nc3ccc(OC(F)(F)F)cc3)n([C@H]3C[C@H](C)CC(C)(C)C3)c2c1 (racemic) [Example 2-2, (±) methyl 2-{[4-(trifluoromethoxy)phenyl]amino}-1-[(trans)-3,3,5-trimethylcyclohexyl]-1H-benzimidazole-6-carboxylate] | 10000 |  | 
COC(=O)CN(C)C(=O)c1ccc2nc(Nc3ccc(OC(F)(F)F)cc3)n([C@H]3C[C@@H](C)CC(C)(C)C3)c2c1 (racemic) [Example 2-9, (±) methyl N-methyl-N-[(2-{[4-(trifluoromethoxy)phenyl]amino}-1-[(cis)-3,3,5-trimethylcyclohexyl]-1H-benzimidazol-6-yl)carbonyl]glycinate] | 9000 | 250 | 
C[C@@H]1C[C@H](n2c(Nc3ccc(OC(F)(F)F)cc3)nc3ccc(C(=O)N(C)C)cc32)CC(C)(C)C1 (racemic) [Example 2-20, (±) N,N-dimethyl-2-{[4-(trifluoromethoxy)phenyl]amino}-1-[(cis)-3,3,5-trimethylcyclohexyl]-1H-benzimidazole-6-carboxamide] | 2000 | 100 | 
C[C@@H]1C[C@H](n2c(Nc3ccc(OC(F)(F)F)cc3)nc3ccc(C(=O)N4CCOCC4)cc32)CC(C)(C)C1 (single isomer, unassigned; enantiomer a) [Example 2-16-1, morpholin-4-yl(2-{[4-(trifluoromethoxy)phenyl]amino}-1-[(cis)-3,3,5-trimethylcyclohexyl]-1H-benzimidazol-6-yl)methanone, enantiomer A] |  |  | 500
C[C@@H]1C[C@H](n2c(Nc3ccc(OC(F)(F)F)cc3)nc3ccc(C(=O)N(C)C)cc32)CC(C)(C)C1 (single isomer, unassigned; enantiomer a) [Example 2-20-1, (±) N,N-dimethyl-2-{[4-(trifluoromethoxy)phenyl]amino}-1-[(cis)-3,3,5-trimethylcyclohexyl]-1H-benzimidazole-6-carboxamide, enantiomer A] |  | 80 | 1800
COC(=O)c1ccc2nc(Nc3ccc(OC(F)(F)F)cc3)n([C@H]3C[C@@H](C)CC(C)(C)C3)c2c1 (single isomer, unassigned; enantiomer b) [Example 2-1-2, methyl 2-{[4-(trifluoromethoxy)phenyl]amino}-1-[(cis)-3,3,5-trimethylcyclohexyl]-1H-benzimidazole-6-carboxylate, enantiomer B] | 5700 |  | 
C[C@@H]1C[C@H](n2c(Nc3ccc(OC(F)(F)F)cc3)nc3ccc(C(=O)N4CCOCC4)cc32)CC(C)(C)C1 (single isomer, unassigned; enantiomer b) [Example 2-16-2, morpholin-4-yl(2-{[4-(trifluoromethoxy)phenyl]amino}-1-[(cis)-3,3,5-trimeethylcyclohexyl]-1H-benzimidazol-6-yl)methanone, enantiomer B] | 400 |  | 
C[C@@H]1C[C@H](n2c(Nc3ccc(OC(F)(F)F)cc3)nc3ccc(C(=O)N(C)C)cc32)CC(C)(C)C1 (single isomer, unassigned; enantiomer b) [Example 2-20-2, (±) N,N-dimethyl-2-{[4-(trifluoromethoxy)phenyl]amino}-1-[(cis)-3,3,5-trimethylcyclohexyl]-1H-benzimidazole-6-carboxamide, enantiomer B] |  | 200 | 4300
